The nature of data set [1]: In vitro diffusion study across microneedle-treated full thickness Yucatan miniature pig skin. The conditions noted are these: for naltrexol flux: 10% PG containing saturated donor formulation; for flux enhancement of salt form over free base form: NTX flux, p<0.005; for flux of naltrexone from the hydrochloride salt form: donor in 0.3M acetate buffer pH 5.0, MN treated skin, n=4. The class given is in vitro ADME. Here is the method: For all in vitro experiments female Yucatan minipig skin (6 months old) were used. Skin sections were obtained by removing the subcutaneous fatty tissue by scalpel dissection, and were stored at −20° C. A PermeGear flow-through (In-Line, Riegelsville, Pa., USA) diffusion cell system was used for the skin permeation studies.
The skin was pierced 20 times with an array containing 5 MN (i.e., to make a total of 100 individual and non-over lapping piercings) before mounting the skin in the diffusion cell for the treatment group. The insertion of MN into skin was carried out manually by applying gentle finger pressure followed by instantaneous removal. MN's were distributed evenly within the 0.95 cm^2 area of skin and could easily be visualized after each 5 MN insertion, as to prevent reapplication in the same area. Single MN array of 5 were used simply out of ease for the experimental procedure. If any damage to an MN section was observed the section was replaced. […] Untreated skin samples were simply placed in the diffusion cells. Diffusion cells were kept at 32° C. using a circulating water bath. Data were collected using skin from a single pig 3-4 cells for the MN treated formulations.
The physiological receiver solution was water adjusted to pH 7.4 containing 20% ethanol, and the flow rate was adjusted to 1.5 ml/h. Each cell was charged with 0.25 ml of the donor in the donor compartment of the chamber. The diffusion cells were covered with a stopper to prevent evaporation. Samples were collected from the receiver compartment in six-hour increments over 48 h or for the length of the treatment. All samples were stored at 4° C. until analyzed by HPLC.
The in vitro permeation experiments were carried out to determine the transdermal flux of the parent drugs and the codrug, permeation coefficients as well as the concentration of the drug molecules in the skin at the end of the study. For all in vitro experiments Yucatan miniature pig (YP) skin was used. Full thickness skin was obtained by removing the subcutaneous fatty tissue by scalpel dissection, and stored at −20° C. A PermeGear flow-through (In-Line, Riegelsville, Pa., USA) diffusion cell system was used for the skin permeation studies. […] The skin was pierced 20 times with a 5 MN array (making 100 individual and non-over lapping piercings) before mounting the skin in the diffusion cell. MN pores were distributed evenly within the 0.95 cm^2 area of skin. Untreated skin samples were mounted directly onto the diffusion cells. The setup was maintained at 32° C. using a circulating water bath. Data collected using a minimum of 3-4 cells per treatment group. The receiver solution was water alkalified to pH 7.4 containing 20% ethanol at 37° C. Gentamycin sulfate (50 mg/L) was added to the receiver for 7 day studies as an antibacterial agent. The receiver flow rate was adjusted to 1.5 ml/h to maintain skin conditions. Each cell was charged with 0.25 ml of the donor and the diffusion cells were covered with a stopper to prevent evaporation of formulation. Samples were collected at regular increments over 48 hours or for the length of the treatment. Drug was concentrated 10 fold by evaporating 1 ml of the collected sample under nitrogen and reconstituting in 100 μl of ACN for quantification. All samples were stored at 4° C. until analyzed by HPLC. The skin was removed at the end of the study and the treatment area was diced into small pieces using a scalpel after removing all excess drugs from top of the skin. Drug was extracted out by immersing the skin pieces in ACN overnight in a shaker water bath at 32° C. Samples were injected into the HPLC after appropriate dilution for quantitative analysis. The donor was also removed and quantified at the end of the study by direct injection onto HPLC after suitable dilution using ACN. All data was analyzed using Fick's first law of diffusion. […]

A short description of data set [2]: Chemical stability in 0.3M acetate buffer pH 5.0 at 32° C. The class given is physicochemical. From the text:
The chemical stability of the prodrugs to hydrolysis and solvolysis at the appropriate temperatures will be determined by measuring concentrations over time in the buffers and solvents used in the solubility and diffusion studies. Chemical degradation rate constants will be important in distinguishing enzymatic degradation from non-enzymatic degradation. Codrug enzymatic metabolism rate constants can also be determined in skin homogenates, to ascertain if the values are useful in the QSPR multiple regression analysis. The kinetics of codrug enzymatic degradation in skin homogenates will be done using abdominal plastic surgery samples. Enzymatic reaction rates will be determined at several different codrug concentrations. The skin is homogenized (Polytron tissue homogenizer and ground glass homogenizer fitted with a glass pestle) in HEPES-buffered Hanks' balanced salt solution and the supernatant is obtained. The enzymatic hydrolysis rates are determined in the homogenate at 37° C. The codrug and its metabolites will be obtained by solid-phase extraction, or another appropriate extraction method. Naltrexone and any other metabolite formed will be assayed by HPLC and expressed as moles of metabolite per minute per milligram of protein. Protein concentrations in the supernatant will be measured by the Bradford method. Controls containing only codrug and HEPES-buffered Hanks' balanced salt solution at 37° C. will also be monitored to determine non-enzymatic hydrolysis.
Chemical and enzymatic stability was determined for the codrugs. For chemical stability studies, the codrug was put in prewarmed 0.3M acetate buffer pH 5.0 after solubilization in <5% ACN, if required, at 32° C. in an incubator. Samples were withdrawn at regular intervals and injected into the HPLC after appropriate dilutions. Enzymatic stability studies are important for estimation of conversion of codrugs in the plasma. […] All stability data was analyzed using pseudo first order kinetics. […]

In data set [3] the test system is hairless guinea pig micropores. Put plainly: In vivo micropore visualization by gentian violet/India ink staining after MN treatment. Conditions: for time the pores stay open after MN treatment: codrug gel under occlusion, patch changed at 3.5 days. From the text:
The patches were removed at predetermined time points and the site was cleaned with sterile gauze. Gentian violet/India ink was applied as the dyeing agent at the MN treated sites and allowed to dry before excess dye was removed with ethanol and gauze. Both the dyes stain the viable epidermis but not the intact SC. […] The donor was removed from the top of the skin at the end of the study and analyzed by direct injection onto HPLC after suitable dilution using ACN.
All animal experiments were approved by the University of Kentucky IACUC. A proof of concept in vivo experiment was carried out. 4% w/w gels were prepared with the hydrochloride salt form of the codrug. Gels were formulated by dissolving 4% codrug salt in PG: buffer at pH 5.0=10:90 and 3.0% hydroxyethylcellulose (HEC) polymer (required to have a gel formulation). Polymer was dissolved over a 30 minute period to obtain a homogenous gel. The solution was stirred until a viscous gel resulted and then left at room temperature for 1½ to 2 hours to remove bubbles and ensure complete polymerization. The gel was saturated with excess solid and therefore was cloudy. MN treated animals were first cleaned topically with isopropyl alcohol, and 50 MN array was applied twice mutually perpendicular to each other to give a total of 100 pores at each site. 0.3 mL gel doses were applied to the dorsal region of the HGP. After application of the gel the skin was occluded with the occlusive patch and biocclusive tape was applied to prevent evaporation of the formulation. The patch was changed with new formulation at 3.5 days such that more than 50% intact codrug was always present in formulation. […] The patches were removed to obtain data at successive 24 h time intervals.
The patches were removed at predetermined time points and the site was cleaned with sterile gauze. Gentian violet/India ink was applied as the dyeing agent at the MN treated sites and allowed to dry before excess dye was removed with ethanol and gauze. Both the dyes stain the viable epidermis but not the intact SC.

The nature of data set [4]: Pharmacokinetic study with codrug HCl salt gel patches after MN treatment. The data set is classed as in vivo, hairless guinea pig. The procedure:
Microneedle treatment at each patch site contained 100 micropores created by a 1 cm^2 50 needle stainless steel array rotated 90° and inserted twice. […] Plasma samples were obtained from a jugular catheter over seven days and analyzed for drug concentration by LC/MS (Methods).
(§1) Hairless IAF guinea pigs (Charles River) weighing 350-650 g were used for these studies. All animal studies were in accordance with the institutional guidelines and approved by the University of Kentucky IACUC. Surgical procedure was performed to canulate the jugular vein. Blood samples (0.3 mL) were drawn from the jugular vein at regular time intervals for the time studied. MN treated animals were first cleaned topically with isopropyl alcohol, and two 50 MN arrays were then manually applied to each dose site. For MN treated GPs, four 0.3 mL gel doses were applied to the dorsal region of the hairless guinea pigs at 4 sites to obtain steady state plasma levels. […] The blood samples were immediately centrifuged at 10,000×g for 3 min; plasma was separated and stored at −70° C. until analysis.
as §1, with “70 g C” for “−70° C.”

Data set [5] in a line: Concentration of saturated donor solution. Conditions: hydrochloride salt; 0.3M acetate buffer at pH 5.0. The data set is classed as physicochemical. Here is the method:
Solubility studies are carried out by equilibrating large excesses of each drug with the solvent studied. The experiments will be done at skin surface temperature (32° C.). To hasten the attainment of equilibrium, each slurry will be continuously shaken or stirred. Samples will be taken, filtered with an appropriate filter for the solvent, measured with respect to volume, and either assayed directly by HPLC or evaporated to dryness and reconstituted for assay. Binding of the compounds to the filter will be checked to eliminate the possibility of drug adsorption on the filter and/or filter casing. All toxic solvents and other chemicals will be handled with caution, and fume hoods will be used when appropriate.
In vitro experiments. The goal of the first set of in vitro experiments was to estimate flux and skin concentration of the base form of the codrug.

The conditions of data set [6]: Micromedex 1.0, as fraction; cited from earlier work.
Setting [7] is: listed as Compound 2U hydrochloride salt.

Values joined by “and” are separate entries in the source; they are usually repeats but may differ in a detail not shown here. Equal values may be shown once. Where a name gives a salt, the structure may show the parent alone.

In the case of `O=C(Cc1ccccc1Nc1c(Cl)cccc1Cl)OC1CCC2(O)C3Cc4ccc(O)c5c4C2(CCN3CC2CC2)C1O5` (stereo not drawn) [Compound 2B], in data set [1], the naltrexol flux entry was “approximately 0.29±0.09 nmol/cm^2/h”. Besides, in data set [2], the “Chemical stability” value was 56.3 ± 9.5 days.
For the molecule `O=C1CC[C@@]2(O)[C@H]3Cc4ccc(O)c5c4[C@@]2(CCN3CC2CC2)[C@H]1O5` [NTX HCl, Naltrexone Hydrochloride, reference compound], the “pore visualization at day 4 (96 h)” value in data set [3] (MN followed by NTX HCl gel under occlusion) is “cannot be visualized”.
`Oc1ccc2c3c1O[C@H]1[C@H](O)CC[C@@]4(O)[C@@H](C2)N(CC2CC2)CC[C@]314` [NTXOL, 6-β-Naltrexol, reference compound] gave a naltrexol flux in data set [1] of 3.07±0.27 nmol/cm^2/h.
In the case of `Cl.O=C(Cc1ccccc1Nc1c(Cl)cccc1Cl)Oc1ccc2c3c1O[C@H]1C(=O)CC[C@@]4(O)[C@@H](C2)N(CC2CC2)CC[C@]314` [codrug salt], in data set [4] (4 patches, 400 MN treatments), the “Css estimated from Jss*A=Css*Cl” value is on record as “around 1 ng/ml”. For the same molecule, in data set [4] (LC/MS, over seven days), the “intact codrug in plasma samples” value is given as “not detected”. Also, in data set [4] (days 1, 4, 5, 6, and 7), the “micropore staining with India ink” value is on record as “Significant micropore staining”. Moreover, the “time at which pores closed” value in data set [4] (one guinea pig of four) is 6 days. For the same molecule, the “flux of NTX from the codrug in hairless guinea pig model” value in data set [4] (salt form, 10% PG formulation) is on record as “not high enough to quantify”. For the same molecule, the “duration of significant NTX plasma levels” value in data set [4] (three out of the four guinea pigs, four patches, single MN pretreatment) turned out to be 7 days. Also, the “concentration of donor solution” value in data set [5] amounted to 39300 µg/mL. Besides, the results for the “flux enhancement of salt form over free base form” value in data set [1] and in data set [1] (setting [7]) were 13 fold and “about 13 fold”, respectively. Besides, the “flux of naltrexone from the hydrochloride salt form” value in data set [1] is 5.42±1.5 nmol/(cm^2/h) and 5.5 nmol/(cm^2/h); in data set [1] (setting [7]), 5.42±1.5 nmol/(cm^2/h). Besides, in data set [1] (salt form, 25% and 50% PG, saturated donor), the “flux at higher concentrations of PG” value was “flux decreased significantly”. Also, the “flux of 10% PG containing formulation versus aqueous formulation” value in data set [1] (salt form, saturated donor, one way ANOVA) is recorded as “no significant difference in flux”. The “time the pores stay open after MN treatment” value in data set [3] (setting [7]) and in data set [3] (listed as HCl salt form of the compound) was at most 7 days in each case.
`O=C(Cc1ccccc1Nc1c(Cl)cccc1Cl)O[C@@H]1CC[C@@]2(O)[C@H]3Cc4ccc(O)c5c4[C@@]2(CCN3CC2CC2)C1O5` (stereo partly drawn) [Compound 2B] had a half-life in data set [2] (buffer pH 5.0, 32° C.) of around 56.3 days.
For the molecule `O=C(O)Cc1ccccc1Nc1c(Cl)cccc1Cl` [diclofenac, Diclofenac], in data set [6], the oral bioavailability is reported as 0.55.

The record behind these values is patent publication US9566341B1, “Compounds including Cox inhibitor moiety and enhanced delivery of active drugs using same” (University of Kentucky Research Foundation, priority 2011, dated 2017).
